According to US20090011410A1, “METHOD FOR TAILORING ADMINISTRATION OF DRUGS BY QUANTITATION OF MRNA” (priority 2004, published 2009):

Test system: NOXA mRNA
Assay: drug-induced NOXA mRNA expression in whole blood of healthy adults (SYBR green PCR screen)
Type: cell-based, human
Details: 20 μM BLM or 100 μM VP-16, 4 hours at 37° C.; degree less than PUMA (FIG. 6)
Protocol: In 8-well strip microtubes, 1.4 μl of 50× concentrations of drugs or controls (phosphate buffered saline (PBS) or DMSO) were added, and stored at −20° C. until use. […] Seventy μl of fresh heparinized whole blood was added into each well in triplicate, and incubated at 37° C. for 2-8 hours with the cap closed. For radiation treatment, blood was stimulated at designated doses using cesium-137. After each treatment, 50 μl of whole blood was transferred to filterplates as described below.
The mRNA and cDNA were prepared from whole blood. In brief, home-made 96-well filterplates were placed over collection plates, and 150 μl 5 mM Tris, pH 7.4, was applied. Following centrifugation at 120×g for 1 min at 4° C., 50 μl of blood samples were applied to each well and immediately centrifuged at 120×g for 2 min at 4° C., followed by washing of each well with 300 μl PBS once with centrifugation at 2000×g for 5 min at 4° C. […] The Ct was determined by analytical software (SDS, ABI). […]
Quantitation of various mRNAs was conducted using the following method. […]

Molecule	NOXA induction
COc1cc([C@@H]2c3cc4c(cc3[C@@H](O[C@@H]3O[C@@H]5CO[C@@H](C)O[C@H]5[C@H](O)[C@H]3O)[C@H]3COC(=O)[C@H]23)OCO4)cc(OC)c1O [VP-16, etoposide]	induced in all individuals
bleomycin [BLM]	induced in all individuals
